Test results from patent publication US20180298405A1, “METHODS AND COMPOSITIONS TO INCREASE HUMAN SOMATIC CELL NUCLEAR TRANSFER (SCNT) EFFICIENCY BY REMOVING HISTONE H3-LYSINE TRIMETHYLATION, AND DERIVATION OF HUMAN NT-ESC” (CHILDREN'S MEDICAL CENTER CORPORATION, priority 2015, published 2018).

System: reprogramming resistant regions (RRRs) / ZGA genes
Assay: RNA-seq of late 8-cell human SCNT embryos with or without KDM4A mRNA injection (ZGA of RRRs, KDM4A-responsive genes)
Type: cell-based
Excerpt: A sliding window (size 20 kb, step size 10 kb) was used to assess the genome-wide expression level of 4-cell and 8-cell human embryos. For each window, the expression level was quantified with normalized RPM (reads per millions of uniquely mapped reads). […] These activated regions were classed into three groups based on their expression differences in human SCNT and IVF 8-cell embryos.
The SCNT embryos used for ZGA analysis were generated using oocytes donated by a single healthy person (#64) and dermal fibroblast cells from an AMD patient (DFB-8). SCNT and IVF embryos were cultured up to late 8-cell stage, when the compaction of blastomeres is initiated, then they were treated briefly with acid Tyrode solution to remove zona pellucida. To prepare for the 8-cell SCNT embryo, oocytes from a single oocyte donor, and skin fibroblast cells from a single somatic nuclear donor were used. All the procedures are the same as described in the “Human SCNT procedure and KMD4A mRNA injection” section. Only embryos that reached the late 8-cell stage synchronically 74 hours post activation were collected and used for this experiment.
For preparation of the control IVF embryos, several donated early 8-cell stage IVF embryos were thawed and cultured for 5-7 hours to allow them to reach late 8-cell stage before being processed. After removal of the zona pellucida, the denuded embryos were washed 3 times in PBS, loaded into RNAse and DNAse free PCR tubes, spin downed, and snap frozen in liquid nitrogen. Then, they were kept at −80° C. until use. As controls, dermal fibroblast cells of somatic nuclear donors were also prepared. Those fibroblast cells were cultured in a 25 cm^2 flask in DMEM 10% FBS, and approximately 10,000 cells/donor were collected, snap frozen, and stored at −80° C. until use.
Five 8-cell embryos for each group were directly lysed and used for cDNA synthesis using SMART-Seq v4 Ultra Low Input RNA Kit (Clontech). For MEF donor, 10 ng total RNA was used for cDNA synthesis using SMART-Seq v4 Ultra Low Input RNA Kit. After amplification, the cDNA samples were fragmented using Covaris sonicator M220 to an average size of 150 bp (Covaris). Sequencing libraries were made with the fragmented DNA using NEBNext Ultra DNA Library Prep Kit for Illumina according to manufacturer's instruction (New England Biolabs) with different barcodes. For each RNA-seq analysis of hESCs, 1 μg total RNA was used for mRNA purification. Barcoded RNA-seq libraries were generated using NEBNext Ultra Directional RNA Library Prep Kit for Illumina (New England Biolabs). Single end 50 bp sequencing was performed on a HiSeq 2500 sequencer (Illumina). Sequencing reads were mapped to the human genome (hg19) with Tophat2. All programs were performed with default settings (unless otherwise specified). At least 22 million uniquely mapped reads were obtained for each sequencing library, and subsequently assembled into transcripts guided by the reference annotation (Refseq gene models) with Cufflinks v2.0.2. Expression level of each gene was quantified with normalized FPKM (fragments per kilobase of exon per million mapped fragments). Statistical analyses were performed with R (available at: “www.r-project.org/”). Independent 2 group Wilcoxon rank sum tests were used to compare distributions using the wilcox.test function in R. Pearson's r coefficient was calculated using the cor function with default parameters. The hierarchical clustering analysis of the global gene expression pattern in different samples was carried out using heatmap.2 function (gplots package) in R.

KDM4A mRNA: in vitro transcribed mRNA of full length human KDM4A/JHDM3A cDNA, an H3K9me3 demethylase (SEQ ID NO: 1)
ZNF826P Fold Change (log2) [KDM4A SCNT/Control SCNT] (8-cell embryos): 2.67 log2 | ZNHIT6 Fold Change (log2) [KDM4A SCNT/Control SCNT] (8-cell embryos): 1.58 log2 | 12-Sep Expression level (FPKM) (KDM4A SCNT 8-cell embryos): 0.3 FPKM | AASDH Expression level (FPKM) (KDM4A SCNT 8-cell embryos): 2.84 FPKM | ACBD5 Expression level (FPKM) (KDM4A SCNT 8-cell embryos): 1.62 FPKM | ALG5 Expression level (FPKM) (KDM4A SCNT 8-cell embryos): 9.71 FPKM | ALPPL2 Expression level (FPKM) (KDM4A SCNT 8-cell embryos): 3.65 FPKM | APOC1P1 Expression level (FPKM) (KDM4A SCNT 8-cell embryos): 0.43 FPKM | ATP5J2-PTCD1 Expression level (FPKM) (KDM4A SCNT 8-cell embryos): 4.51 FPKM | BEX2 Expression level (FPKM) (KDM4A SCNT 8-cell embryos): 2.68 FPKM | BLVRB Expression level (FPKM) (KDM4A SCNT 8-cell embryos): 2.11 FPKM | BTAF1 Expression level (FPKM) (KDM4A SCNT 8-cell embryos): 1.46 FPKM | BTK Expression level (FPKM) (KDM4A SCNT 8-cell embryos): 1.67 FPKM | BUD31 Expression level (FPKM) (KDM4A SCNT 8-cell embryos): 76.07 FPKM | C1D Expression level (FPKM) (KDM4A SCNT 8-cell embryos): 97 FPKM | C2orf74 Expression level (FPKM) (KDM4A SCNT 8-cell embryos): 0.41 FPKM | C11orf67 Expression level (FPKM) (KDM4A SCNT 8-cell embryos): 28.21 FPKM | C12orf60 Expression level (FPKM) (KDM4A SCNT 8-cell embryos): 46.22 FPKM | C16orf91 Expression level (FPKM) (KDM4A SCNT 8-cell embryos): 9.96 FPKM | C17orf89 Expression level (FPKM) (KDM4A SCNT 8-cell embryos): 0.75 FPKM | C18orf56 Expression level (FPKM) (KDM4A SCNT 8-cell embryos): 0.33 FPKM | C20orf7 Expression level (FPKM) (KDM4A SCNT 8-cell embryos): 2.28 FPKM | CAB39L Expression level (FPKM) (KDM4A SCNT 8-cell embryos): 4.06 FPKM | CCAR1 Expression level (FPKM) (KDM4A SCNT 8-cell embryos): 4.62 FPKM | CCDC86 Expression level (FPKM) (KDM4A SCNT 8-cell embryos): 2.88 FPKM | CCL2 Expression level (FPKM) (KDM4A SCNT 8-cell embryos): 6.1 FPKM | CCL15 Expression level (FPKM) (KDM4A SCNT 8-cell embryos): 0.89 FPKM | CELA3B Expression level (FPKM) (KDM4A SCNT 8-cell embryos): 0.49 FPKM | CENPC1 Expression level (FPKM) (KDM4A SCNT 8-cell embryos): 7.41 FPKM | CLC Expression level (FPKM) (KDM4A SCNT 8-cell embryos): 13.82 FPKM | CLDN6 Expression level (FPKM) (KDM4A SCNT 8-cell embryos): 3.54 FPKM | CLK4 Expression level (FPKM) (KDM4A SCNT 8-cell embryos): 19.9 FPKM | CNKSR3 Expression level (FPKM) (KDM4A SCNT 8-cell embryos): 0.29 FPKM | CNPY4 Expression level (FPKM) (KDM4A SCNT 8-cell embryos): 5.19 FPKM | COX7B2 Expression level (FPKM) (KDM4A SCNT 8-cell embryos): 0.79 FPKM | COX17 Expression level (FPKM) (KDM4A SCNT 8-cell embryos): 26.62 FPKM | CSAG1 Expression level (FPKM) (KDM4A SCNT 8-cell embryos): 2.22 FPKM | CSTF3 Expression level (FPKM) (KDM4A SCNT 8-cell embryos): 28.96 FPKM | CUL2 Expression level (FPKM) (KDM4A SCNT 8-cell embryos): 14.32 FPKM | CXorf61 Expression level (FPKM) (KDM4A SCNT 8-cell embryos): 0.85 FPKM | DDX26B Expression level (FPKM) (KDM4A SCNT 8-cell embryos): 1.77 FPKM | DEFB122 Expression level (FPKM) (KDM4A SCNT 8-cell embryos): 0.61 FPKM | DLEU7 Expression level (FPKM) (KDM4A SCNT 8-cell embryos): 2.91 FPKM | DNASE2 Expression level (FPKM) (KDM4A SCNT 8-cell embryos): 0.61 FPKM | DRAM1 Expression level (FPKM) (KDM4A SCNT 8-cell embryos): 0.63 FPKM | ECE2 Expression level (FPKM) (KDM4A SCNT 8-cell embryos): 1.18 FPKM | EIF1AD Expression level (FPKM) (KDM4A SCNT 8-cell embryos): 9.43 FPKM | ELL2 Expression level (FPKM) (KDM4A SCNT 8-cell embryos): 1.39 FPKM | FAM9A Expression level (FPKM) (KDM4A SCNT 8-cell embryos): 1.32 FPKM | FAM19A3 Expression level (FPKM) (KDM4A SCNT 8-cell embryos): 1.7 FPKM | FAM83D Expression level (FPKM) (KDM4A SCNT 8-cell embryos): 2.53 FPKM | FAM133B Expression level (FPKM) (KDM4A SCNT 8-cell embryos): 6.06 FPKM | FAM151A Expression level (FPKM) (KDM4A SCNT 8-cell embryos): 1.01 FPKM | FAM162A Expression level (FPKM) (KDM4A SCNT 8-cell embryos): 19.35 FPKM | FAM200A Expression level (FPKM) (KDM4A SCNT 8-cell embryos): 1.23 FPKM | FASTKD5 Expression level (FPKM) (KDM4A SCNT 8-cell embryos): 4.41 FPKM | FBXL12 Expression level (FPKM) (KDM4A SCNT 8-cell embryos): 1.8 FPKM | FMR1NB Expression level (FPKM) (KDM4A SCNT 8-cell embryos): 0.18 FPKM | FOXN2 Expression level (FPKM) (KDM4A SCNT 8-cell embryos): 5.53 FPKM | GALM Expression level (FPKM) (KDM4A SCNT 8-cell embryos): 3.67 FPKM | GIP Expression level (FPKM) (KDM4A SCNT 8-cell embryos): 12.94 FPKM | GJA1 Expression level (FPKM) (KDM4A SCNT 8-cell embryos): 1.64 FPKM | GOLGB1 Expression level (FPKM) (KDM4A SCNT 8-cell embryos): 1.36 FPKM | GUCA1B Expression level (FPKM) (KDM4A SCNT 8-cell embryos): 0.83 FPKM | GUSBP1 Expression level (FPKM) (KDM4A SCNT 8-cell embryos): 7.96 FPKM | GUSBP4 Expression level (FPKM) (KDM4A SCNT 8-cell embryos): 2.42 FPKM | H3F3A Expression level (FPKM) (KDM4A SCNT 8-cell embryos): 14.47 FPKM | IFI30 Expression level (FPKM) (KDM4A SCNT 8-cell embryos): 25.62 FPKM | IL13RA2 Expression level (FPKM) (KDM4A SCNT 8-cell embryos): 0.26 FPKM | KHDC1 Expression level (FPKM) (KDM4A SCNT 8-cell embryos): 85.25 FPKM | KHDC1L Expression level (FPKM) (KDM4A SCNT 8-cell embryos): 668.53 FPKM | KITLG Expression level (FPKM) (KDM4A SCNT 8-cell embryos): 0.93 FPKM | KLF17 Expression level (FPKM) (KDM4A SCNT 8-cell embryos): 8.4 FPKM | KLK4 Expression level (FPKM) (KDM4A SCNT 8-cell embryos): 1.41 FPKM | KLK11 Expression level (FPKM) (KDM4A SCNT 8-cell embryos): 7.07 FPKM | KPTN Expression level (FPKM) (KDM4A SCNT 8-cell embryos): 6.84 FPKM | LARP6 Expression level (FPKM) (KDM4A SCNT 8-cell embryos): 0.41 FPKM | LEMD3 Expression level (FPKM) (KDM4A SCNT 8-cell embryos): 0.59 FPKM | LIM2 Expression level (FPKM) (KDM4A SCNT 8-cell embryos): 2.01 FPKM | LINC00263 Expression level (FPKM) (KDM4A SCNT 8-cell embryos): 3.81 FPKM | LOC284408 Expression level (FPKM) (KDM4A SCNT 8-cell embryos): 1.36 FPKM | LOC347411 Expression level (FPKM) (KDM4A SCNT 8-cell embryos): 1.62 FPKM | LOC401397 Expression level (FPKM) (KDM4A SCNT 8-cell embryos): 11.19 FPKM | LOC643955 Expression level (FPKM) (KDM4A SCNT 8-cell embryos): 3.18 FPKM | LOC653513 Expression level (FPKM) (KDM4A SCNT 8-cell embryos): 1.03 FPKM | LOC723809 Expression level (FPKM) (KDM4A SCNT 8-cell embryos): 3.84 FPKM | LOC100129515 Expression level (FPKM) (KDM4A SCNT 8-cell embryos): 9.35 FPKM | LOC100289211 Expression level (FPKM) (KDM4A SCNT 8-cell embryos): 8.18 FPKM | LOC100505854 Expression level (FPKM) (KDM4A SCNT 8-cell embryos): 4.77 FPKM | LOC100506305 Expression level (FPKM) (KDM4A SCNT 8-cell embryos): 0.91 FPKM | LOC100506668 Expression level (FPKM) (KDM4A SCNT 8-cell embryos): 8.79 FPKM | LUC7L Expression level (FPKM) (KDM4A SCNT 8-cell embryos): 2.91 FPKM | M1 Expression level (FPKM) (KDM4A SCNT 8-cell embryos): 2.52 FPKM | MAGEA12 Expression level (FPKM) (KDM4A SCNT 8-cell embryos): 0.25 FPKM | MAGEB2 Expression level (FPKM) (KDM4A SCNT 8-cell embryos): 0.79 FPKM | MATR3 Expression level (FPKM) (KDM4A SCNT 8-cell embryos): 9.43 FPKM | MED31 Expression level (FPKM) (KDM4A SCNT 8-cell embryos): 27.22 FPKM | MFSD11 Expression level (FPKM) (KDM4A SCNT 8-cell embryos): 7.94 FPKM | MPV17L2 Expression level (FPKM) (KDM4A SCNT 8-cell embryos): 4.48 FPKM | MRPL28 Expression level (FPKM) (KDM4A SCNT 8-cell embryos): 1.56 FPKM | MTERF Expression level (FPKM) (KDM4A SCNT 8-cell embryos): 3.15 FPKM | NANOGNB Expression level (FPKM) (KDM4A SCNT 8-cell embryos): 30.92 FPKM | NDUFAF2 Expression level (FPKM) (KDM4A SCNT 8-cell embryos): 6.37 FPKM | NMNAT1 Expression level (FPKM) (KDM4A SCNT 8-cell embryos): 3.71 FPKM
